# Assay results from ChEMBL document CHEMBL3352650, “Investigation of podophyllotoxin esters as potential anticancer agents: synthesis, biological studies and tubulin inhibition properties” (Eur J Med Chem, 2015).
# Active and inactive are the calls of the source. No cut-off for these calls is given here.
# Assays:
# MCF7 = assay: Cytotoxicity against human MCF7 cells after 48 hrs by MTT assay; format: functional, cell-based; conditions: MCF7, 48 h
# A549 = assay: Cytotoxicity against human A549 cells after 48 hrs by MTT assay; format: functional, cell-based; conditions: A549, 48 h
# HeLa = assay: Cytotoxicity against human HeLa cells after 48 hrs by MTT assay; format: functional, cell-based
# DU-145 [1] = assay: Cytotoxicity against human DU145 cells after 48 hrs by MTT assay; format: functional, cell-based; conditions: DU-145, 48 h
# HepG2 = assay: Cytotoxicity against human HepG2 cells after 48 hrs by MTT assay; format: functional, cell-based; conditions: HepG2, 48 h
# DU-145 [2] = assay: Cytotoxicity against human DU145 cells assessed as inhibition of colony formation at 5 uM after 3 days by microscopy; format: functional, cell-based
# DU-145 [3] = assay: Induction of apoptosis in human DU145 cells assessed as nuclear fragmentation at 2 uM after 24 hrs by Hoechst 33342 staining based confocal microscopy; format: functional, cell-based
# DU-145 [4] = assay: Cytotoxicity against human DU145 cells assessed as inhibition of colony formation at 2.5 uM after 3 days by microscopy; format: functional, cell-based
# Tubulin (Homo sapiens) [5] = molecular target: T1, Tubulin (Homo sapiens) (UniProt P68371+Q9H4B7+P0DPH7+P68366+Q13509+Q71U36+P04350+Q3ZCM7+P07437+P68363+Q9BQE3+Q6PEY2+Q13885+Q9BVA1+Q9BUF5); assay: Inhibition of tubulin polymerization (unknown origin) at 5 uM measured every min for 1 hr by fluorescence-based assay; format: protein-complex assay; parameters: scale not given: the % may be the effect or the level left
# Tubulin (Homo sapiens) [6] = molecular target: T1, Tubulin (Homo sapiens); assay: Inhibition of tubulin polymerization in human DU145 cells assessed as reduction of Akt phosphorylation at Ser473 at 2 to 5 uM after 48 hrs by Western blotting analysis; format: cell-based; conditions: DU-145
# DU-145 [7] = assay: Cell cycle arrest in human DU145 cells assessed as accumulation at sub-G1 phase at 2 uM after 48 hrs by propidium iodide staining-based flow cytometric analysis (reference value: 0.17%); format: functional
# DU-145 [8] = assay: Cell cycle arrest in human DU145 cells assessed as accumulation at S phase at 2 uM after 48 hrs by propidium iodide staining-based flow cytometric analysis (reference value: 5.88%); format: functional
# DU-145 [9] = assay: Cell cycle arrest in human DU145 cells assessed as accumulation at G0/G1 phase at 2 uM after 48 hrs by propidium iodide staining-based flow cytometric analysis (reference value: 78.96%); format: functional
# DU-145 [10] = assay: Cell cycle arrest in human DU145 cells assessed as accumulation at G2/M phase at 2 uM after 48 hrs by propidium iodide staining-based flow cytometric analysis (reference value: 15%); format: functional
Compound,IC50 (MCF7) [µM],IC50 (A549) [µM],IC50 (HeLa) [µM],IC50 (DU-145 [1]) [µM],IC50 (HepG2) [µM],inhibition (DU-145 [2]),Activity (DU-145 [3]),inhibition (DU-145 [4]),Activity (Tubulin (Homo sapiens) [5]) [%],Activity (Tubulin (Homo sapiens) [6]),Activity (DU-145 [7]) [%],Activity (DU-145 [8]) [%],Activity (DU-145 [9]) [%],Activity (DU-145 [10]) [%]
COc1ccc(C(=O)O[C@H]2c3cc4c(cc3[C@@H](c3cc(OC)c(OC)c(OC)c3)[C@H]3C(=O)OC[C@@H]32)OCO4)c([N+](=O)[O-])c1,15.3,25.8,17.6,14.4,26.5,,,,,,,,,
COc1ccc(/C(=C\c2cc(OC)c(OC)c(OC)c2)C(=O)O[C@H]2c3cc4c(cc3[C@@H](c3cc(OC)c(OC)c(OC)c3)[C@H]3C(=O)OC[C@@H]32)OCO4)cc1,23.3,13,15.9,38.1,23.7,,,,,,,,,
COc1cc([C@@H]2c3cc4c(cc3[C@H](OC(=O)c3cc([N+](=O)[O-])ccc3N)[C@H]3COC(=O)[C@H]23)OCO4)cc(OC)c1OC,19.7,22.2,13.7,11.2,27.3,,,,,,,,,
CC#CC(=O)O[C@H]1c2cc3c(cc2[C@@H](c2cc(OC)c(OC)c(OC)c2)[C@H]2C(=O)OC[C@@H]21)OCO3,1.35,1.03,1,1.71,1.47,Active,Active,Active,62.1,,,,,
COc1ccc(/C(=C\c2ccc(OC)c(OCc3ccccc3)c2)C(=O)O[C@H]2c3cc4c(cc3[C@@H](c3cc(OC)c(OC)c(OC)c3)[C@H]3C(=O)OC[C@@H]32)OCO4)cc1OC,17.6,17.5,14.3,33,22.9,,,,,,,,,
COc1cccc(/C(=C\c2cc(OC)c(OC)c(OC)c2)C(=O)O[C@H]2c3cc4c(cc3[C@@H](c3cc(OC)c(OC)c(OC)c3)[C@H]3C(=O)OC[C@@H]32)OCO4)c1,20.1,24.9,14.1,18.4,27.3,,,,,,,,,
COc1cc([C@@H]2c3cc4c(cc3[C@H](OC(=O)c3cccc(OC)c3OC)[C@H]3COC(=O)[C@H]23)OCO4)cc(OC)c1OC,21,24.3,13.2,50.4,48.6,,,,,,,,,
COc1ccc(/C=C\c2cc(OC)c(OC)c(OC)c2)cc1O,,,,,,,,,69.4,,,,,
COc1ccc(/C=C(/C(=O)O[C@H]2c3cc4c(cc3[C@@H](c3cc(OC)c(OC)c(OC)c3)[C@H]3C(=O)OC[C@@H]32)OCO4)c2ccc(OC)c(OC)c2)cc1OC,1.74,0.71,2.02,1.4,5.13,Active,,,46.8,Dose-dependent effect,73,1.68,22.39,2.94
COc1ccc(/C(=C\c2ccc(OC)c(OC)c2)C(=O)O[C@H]2c3cc4c(cc3[C@@H](c3cc(OC)c(OC)c(OC)c3)[C@H]3C(=O)OC[C@@H]32)OCO4)cc1,17.4,18.2,15.5,8.32,51.2,,,,,,,,,
COc1ccc(/C(=C\c2cc(OC)c(OC)c(OC)c2)C(=O)O[C@H]2c3cc4c(cc3[C@@H](c3cc(OC)c(OC)c(OC)c3)[C@H]3C(=O)OC[C@@H]32)OCO4)cc1OC,22.9,10.4,11.8,37.8,23.7,,,,,,,,,
COc1ccc(/C(=C\c2ccc(OC(C)=O)c(OC)c2)C(=O)O[C@H]2c3cc4c(cc3[C@@H](c3cc(OC)c(OC)c(OC)c3)[C@H]3C(=O)OC[C@@H]32)OCO4)cc1OC,1.83,0.91,2.3,1.06,10.9,Active,,,51.2,Dose-dependent effect,38.88,5.69,42.8,12.63
COc1cccc2c1C(=O)c1c(O)c3c(c(O)c1C2=O)C[C@@](O)(C(=O)CO)C[C@@H]3O[C@H]1C[C@H](N)[C@H](O)[C@H](C)O1 [DOXORUBICIN],,,0.9,4.06,3.82,,,,,,,,,
COc1cc([C@@H]2c3cc4c(cc3[C@H](OC(=O)c3ccccc3Cl)[C@H]3COC(=O)[C@H]23)OCO4)cc(OC)c1OC,19.5,34.5,17.1,11.2,24.4,,,,,,,,,
COc1cc([C@@H]2c3cc4c(cc3[C@H](OC(=O)c3ccc([N+](=O)[O-])cc3)[C@H]3COC(=O)[C@H]23)OCO4)cc(OC)c1OC,1.56,0.74,2.06,1.1,8.83,Active,,,64,Dose-dependent effect,40.72,4.24,41.81,13.23
COc1cc([C@@H]2c3cc4c(cc3[C@H](OC(=O)C#Cc3ccccc3)[C@H]3COC(=O)[C@H]23)OCO4)cc(OC)c1OC,1.23,1.81,1.12,0.79,1.08,Active,Active,Active,53.8,,,,,
COc1ccc(/C(=C\c2ccc(OCc3ccccc3)c(OC)c2)C(=O)O[C@H]2c3cc4c(cc3[C@@H](c3cc(OC)c(OC)c(OC)c3)[C@H]3C(=O)OC[C@@H]32)OCO4)cc1OC,20.3,24.9,15.9,13.4,28,,,,,,,,,
COc1cc([C@@H]2c3cc4c(cc3[C@H](O)[C@H]3COC(=O)[C@H]23)OCO4)cc(OC)c1OC [PODOFILOX],,,,> 100,,,,,66.6,,,,,
